Source: the NIST ThermoML archive (doi:10.1021/acs.jced.8b00132)
Where “and” joins values, the source holds several entries; their conditions need not be identical. Identical values can stand only once.

O=C(C(F)(F)C(F)(F)F)C(F)(C(F)(F)F)C(F)(F)F [dodecafluoro-2-methylpentan-3-one]
Conditions	thermal conductivity
389.64 K, 670 kPa, Liquid, transient hot wire	0.04285 W/m/K
389.64 K, 9501 kPa, Liquid, transient hot wire	0.04974 W/m/K
389.64 K, 9504 kPa, Liquid, transient hot wire	0.04979 W/m/K
389.65 K, 670 kPa, Liquid, transient hot wire	0.04282 W/m/K
389.65 K, 53766 kPa, Liquid, transient hot wire	0.06802 W/m/K
389.66 K, 53751 kPa, Liquid, transient hot wire	0.06802 W/m/K
389.7 K, 21438 kPa, Liquid, transient hot wire	0.05608 W/m/K
389.7 K, 21439 kPa, Liquid, transient hot wire	0.05607 W/m/K
389.72 K, 40368 kPa, Liquid, transient hot wire	0.0636 W/m/K
389.72 K, 67805 kPa, Liquid, transient hot wire	0.07218 W/m/K
389.72 K, 67826 kPa, Liquid, transient hot wire	0.07217 W/m/K
389.73 K, 40356 kPa, Liquid, transient hot wire	0.06359 W/m/K
389.74 K, 5608 kPa, Liquid, transient hot wire	0.04712 W/m/K
389.75 K, 14721 kPa, Liquid, transient hot wire	0.0528 W/m/K
389.76 K, 2811 kPa, Liquid, transient hot wire	0.04489 W/m/K
389.76 K, 14719 kPa, Liquid, transient hot wire	0.05276 W/m/K
389.77 K, 2810 kPa, Liquid, transient hot wire	0.04491 W/m/K
389.79 K, 29871 kPa, Liquid, transient hot wire	0.0597 W/m/K
389.8 K, 29864 kPa, Liquid, transient hot wire	0.05959 W/m/K
389.8 K, 53730 kPa, Liquid, transient hot wire	0.06799 W/m/K
389.81 K, 53715 kPa, Liquid, transient hot wire	0.06798 W/m/K
389.83 K, 9502 kPa, Liquid, transient hot wire	0.0497 W/m/K
389.83 K, 9503 kPa, Liquid, transient hot wire	0.04976 W/m/K
389.84 K, 669 kPa, Liquid, transient hot wire	0.04282 W/m/K and 0.04287 W/m/K
389.85 K, 670 kPa, Liquid, transient hot wire	0.0428 W/m/K and 0.04285 W/m/K
389.87 K, 21435 kPa, Liquid, transient hot wire	0.05603 W/m/K
389.87 K, 67783 kPa, Liquid, transient hot wire	0.07218 W/m/K
389.88 K, 40337 kPa, Liquid, transient hot wire	0.06356 W/m/K
389.88 K, 40347 kPa, Liquid, transient hot wire	0.06347 W/m/K
389.88 K, 67759 kPa, Liquid, transient hot wire	0.07209 W/m/K
389.94 K, 5610 kPa, Liquid, transient hot wire	0.04715 W/m/K
389.95 K, 5610 kPa, Liquid, transient hot wire	0.04716 W/m/K
389.95 K, 14717 kPa, Liquid, transient hot wire	0.05274 W/m/K
389.96 K, 2811 kPa, Liquid, transient hot wire	0.04493 W/m/K
389.96 K, 14717 kPa, Liquid, transient hot wire	0.05275 W/m/K
389.97 K, 2812 kPa, Liquid, transient hot wire	0.04492 W/m/K
389.97 K, 29861 kPa, Liquid, transient hot wire	0.05954 W/m/K
389.97 K, 29862 kPa, Liquid, transient hot wire	0.05955 W/m/K
389.97 K, 53688 kPa, Liquid, transient hot wire	0.06792 W/m/K
389.97 K, 53707 kPa, Liquid, transient hot wire	0.06846 W/m/K
390.03 K, 9500 kPa, Liquid, transient hot wire	0.04976 W/m/K
390.03 K, 9503 kPa, Liquid, transient hot wire	0.04976 W/m/K
390.06 K, 669 kPa, Liquid, transient hot wire	0.0428 W/m/K
390.06 K, 670 kPa, Liquid, transient hot wire	0.04284 W/m/K and 0.04279 W/m/K
390.06 K, 21434 kPa, Liquid, transient hot wire	0.05598 W/m/K
390.06 K, 21436 kPa, Liquid, transient hot wire	0.056 W/m/K
390.06 K, 40331 kPa, Liquid, transient hot wire	0.0635 W/m/K
390.06 K, 40336 kPa, Liquid, transient hot wire	0.06349 W/m/K
390.15 K, 5609 kPa, Liquid, transient hot wire	0.04709 W/m/K and 0.04706 W/m/K
390.15 K, 14714 kPa, Liquid, transient hot wire	0.05264 W/m/K
390.15 K, 29850 kPa, Liquid, transient hot wire	0.0595 W/m/K
390.16 K, 14712 kPa, Liquid, transient hot wire	0.05268 W/m/K
390.16 K, 29857 kPa, Liquid, transient hot wire	0.0595 W/m/K
390.18 K, 2812 kPa, Liquid, transient hot wire	0.04486 W/m/K
390.19 K, 2812 kPa, Liquid, transient hot wire	0.04487 W/m/K
390.24 K, 9499 kPa, Liquid, transient hot wire	0.04963 W/m/K
390.25 K, 9501 kPa, Liquid, transient hot wire	0.04969 W/m/K
390.25 K, 21437 kPa, Liquid, transient hot wire	0.05589 W/m/K
390.26 K, 21435 kPa, Liquid, transient hot wire	0.05593 W/m/K
390.28 K, 669 kPa, Liquid, transient hot wire	0.04276 W/m/K and 0.04278 W/m/K
390.29 K, 670 kPa, Liquid, transient hot wire	0.04279 W/m/K and 0.04277 W/m/K
390.36 K, 14712 kPa, Liquid, transient hot wire	0.05264 W/m/K
390.36 K, 14714 kPa, Liquid, transient hot wire	0.05262 W/m/K
390.37 K, 5610 kPa, Liquid, transient hot wire	0.04711 W/m/K
390.37 K, 5611 kPa, Liquid, transient hot wire	0.04706 W/m/K
390.42 K, 2814 kPa, Liquid, transient hot wire	0.04483 W/m/K
390.42 K, 2815 kPa, Liquid, transient hot wire	0.04488 W/m/K
390.46 K, 9497 kPa, Liquid, transient hot wire	0.04961 W/m/K
390.46 K, 9500 kPa, Liquid, transient hot wire	0.04968 W/m/K
390.52 K, 669 kPa, Liquid, transient hot wire	0.04282 W/m/K and 0.04283 W/m/K
390.53 K, 670 kPa, Liquid, transient hot wire	0.04282 W/m/K and 0.04286 W/m/K
390.57 K, 5608 kPa, Liquid, transient hot wire	0.04706 W/m/K
390.6 K, 5609 kPa, Liquid, transient hot wire	0.04709 W/m/K
390.66 K, 2816 kPa, Liquid, transient hot wire	0.04487 W/m/K
390.66 K, 2817 kPa, Liquid, transient hot wire	0.04488 W/m/K
390.76 K, 669 kPa, Liquid, transient hot wire	0.04287 W/m/K
390.78 K, 669 kPa, Liquid, transient hot wire	0.04304 W/m/K
402.21 K, 448 kPa, Gas, hot wire	0.02088 W/m/K
402.23 K, 447 kPa, Gas, hot wire	0.02061 W/m/K
402.27 K, 307 kPa, Gas, hot wire	0.02002 W/m/K and 0.01983 W/m/K
402.31 K, 156 kPa, Gas, hot wire	0.01939 W/m/K
402.31 K, 157 kPa, Gas, hot wire	0.01939 W/m/K
402.33 K, 446 kPa, Gas, hot wire	0.02071 W/m/K
402.34 K, 445 kPa, Gas, hot wire	0.02068 W/m/K
